Data taken from patent publication US20020119141A1, “Biochemical methods that eliminate corneal scars, opacification and haze” (priority 1999, published 2002).
Read-outs that look alike come from different tables or passages of the source.

Tested on: eyes of rabbits
Source text: Fifty-two (52) healthy rabbits of the New Zealand Cross variety (26 male, 26 female) weighing 1.5 kg to 2.5 kg were individually marked for identification and were housed individually in suspended cages. The animals received a commercially available pelleted rabbit feed on a daily basis, with tap water available ad libitum.
The animals were divided into thirteen groups of 4 animals each (2 males, 2 femals). Two animals in each group (1 male, 1 female) were selected for pretreatment fundus photography and fluorescein angiography.
The fundus photography was performed by restraining the animals and visualizing the optic nerve, retinal arcades and fundus with a KOWA® RC-3 Fundus Camera loaded with Kodak Gold 200 ASA film.
The fluorescein angiography involved a 1.5-ml injection of 2% sterile fluorescein solution via the marginal ear vein. Approximately 30 seconds post-injection the fluorescein was visualized upon localization of the optic nerve, retinal vessels and fundus.
The following day, each animal was anesthetized by intravenous administration of a combination of 34 mg/kg of ketamine hydrochloride and 5-mg/kg xylazine. The eyelids were retracted using a lid speculum, and the eyes were disinfected with an iodine-povidone wash.
The experimental treatments administered to each animal group were as follows:
The day following the injections (Day 1) the 26 animals, which were subjected to the fundus photography and fluorescein angiography, were observed using the same methods as for the pre-dose examination.
The eyes were then surgically removed and placed in a fixture solution of 2.5% glutaraldehyde with 0.1M phosphate buffered saline at pH 7.37. Alternatively, one randomly selected rabbit was euthanized by pentobarbital injection but then fixed by intracardiac injection of the gluteraldehyde solution into the left ventricle to determine the effect of the fixation procedure on the histology findings within the enucleated eyes.
On Day 7, the 13 female rabbits that had been previously photographed and angiography performed were subjected to same observations following the methods previously described.
The remaining 26 animals were euthanized as described above 7 days after dosing. The eyes were fixed in the same manner as those, which had been fixed on day 2. Also, one randomly selected rabbit was subjected to the same intracardiac gluteraldehyde fixation procedure described hereabove for the previously randomly selected animal.
The eyes of the animals treated in this example were examined grossly and microscopically for evidence of treatment-related toxicities.

Question: Thimerosal [BSS + Thimerisol] was tested. Which “treatment-related toxicity of the eyes (gross and microscopic examination)” value (shortened to “treatment-related toxicity of the eyes”) (0.0075 mg thimerosal in BSS, day 2) did it give?
Answer: The value was “free of toxicity”.

Question: And the “treatment-related toxicity of the eyes” value (0.0075 mg thimerosal in BSS, day 7, listed as BSS plus thimerosal)?
Answer: Its value is “significant toxic effects”.

Question: What about the “treatment-related toxicity of the eyes” value (0.0075 mg thimerosal in BSS, day 7, listed as BSS+thimerosal) of the same substance?
Answer: Its value is “breakdown of the blood retinal barrier”.

Question: What about the “treatment-related toxicity of the eyes” value (0.025 mg thimerosal in BSS, day 2 and 7 post dose) of the same substance?
Answer: The value was “severe treatment-related toxic effects”.

Question: What about the “toxic effects in the eyes of rabbits (conclusion)” value (intravitreal injection, at the dosages tested) of the same substance?
Answer: The value was “do cause toxic effects”.
